# Test system: MCF-7, A549 and HepG2 cells
# Assay: Cellular uptake of drug-loaded micelles (confocal laser, flow cytometer)
# Assay type: cell-based, human
# Conditions: doxorubicin 16 μg/mL, 4 h
# Protocol: Cell culture: human breast cancer cells (MCF-7), human lung adenocarcinoma cells (A549) and human hepatoma cells (HepG2) were respectively added to a standard 6-well plate, and about 10^5 cells are in each well. After overnight culture, the culture medium was removed, and 1.8 mL of fresh medium was added to prepare three cell culture solutions.
# Drug treatment: 0.2 mL of each of the above two drugs (the final concentration of doxorubicin was 16 μg/mL) were added to the three cell culture solutions, respectively, and the cells were cultured for 4 h; subsequently, the culture medium was removed, and the cells were washed twice with PBS, fixed with 4% paraformaldehyde solution (about 5 min), and then washed twice with PBS; then, the nuclei of cells were stained with nuclear staining reagent (5 min), and the cells were washed twice with PBS.
smiles,measurement,value
COc1cccc2c1C(=O)c1c(O)c3c(c(O)c1C2=O)C[C@@](O)(C(=O)CO)C[C@@H]3O[C@H]1C[C@H](N)[C@H](O)[C@H](C)O1 [doxorubicin],cellular uptake,cellular uptake can effectively occur
